The text below walks through data of patent US20240174671A1, “New 2,3-Dihydro-1H-pyrrolo[3,2-b]pyridine Derivatives as Sigma Ligands” (ACONDICIONAMIENTO TARRASENSE, priority 2021, published 2024).

Like-named read-outs stand apart in the source and are kept apart here.

Experiment [1] concerns the target T1, human σ1 receptor (Homo sapiens, UniProt Q99720).
T1 construct: expressed in transfected cells; host or cells: HEK-293
Description: Human σ1 receptor radioligand assay ([3H](+)-pentazocine). The class given is binding. On the procedure:
Human σ1 Receptor Radioligand Assay
(§1) NBS (non-specific binding) was measured by adding 10 μM haloperidol. The binding of the test compound was measured at either one concentration (% inhibition at 1 or 10 µM) or five different concentrations to determine affinity values (Ki). Plates were incubated at 37° C. for 120 minutes. After the incubation period, the reaction mix was then transferred to MultiScreen HTS, FC plates (Millipore), filtered and plates were washed 3 times with ice-cold 10 mM Tris-HCL (pH7.4). Filters were dried and counted at approximately 40% efficiency in a MicroBeta scintillation counter (Perkin-Elmer) using EcoScint liquid scintillation cocktail.

Experiment [2] concerns the target T2, human σ2/TMEM97 receptor (Homo sapiens, UniProt Q5BJF2).
T2 construct: expressed in transfected cells; host or cells: HEK-293
Description: Binding assay to human σ2/TMEM97 receptor ([3H]-DTG). Conditions: transfected HEK-293 membranes, 10 nM [3H]-DTG, 25° C., 120 minutes; read-out: Binding σ-[…] (binding to σ2-receptor expressed as Ki). On the procedure: Binding Assay to Human σ2/TMEM97 Receptor.
as §1, with “Transfected HEK-293 membranes (15 μg) were incubated with 10 nM [^3H]-1,3-Di-o-tolylguanidine (DTG) in assay buffer containing Tris-HCl 50 mM at pH 8.0. NSB” for “NBS”, “25°” for “37°”, “was” for “was then”, “and” for “and plates were”, “(pH 8.0).” for “(pH7.4).”

The mark [3] stands for this setting: transfected HEK-293 membranes, 5 nM [3H](+)-pentazocine, 37° C., 120 minutes, read-out: Binding σ-[…] (binding to σ1-receptor expressed as Ki).

T1 sequence (Q99720 whole entry): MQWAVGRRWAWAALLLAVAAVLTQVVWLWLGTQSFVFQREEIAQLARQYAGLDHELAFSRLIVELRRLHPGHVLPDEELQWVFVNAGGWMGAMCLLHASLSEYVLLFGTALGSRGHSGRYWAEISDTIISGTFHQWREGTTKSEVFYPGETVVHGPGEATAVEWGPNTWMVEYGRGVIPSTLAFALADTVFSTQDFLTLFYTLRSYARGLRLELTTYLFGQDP
T2 sequence (Q5BJF2 whole entry): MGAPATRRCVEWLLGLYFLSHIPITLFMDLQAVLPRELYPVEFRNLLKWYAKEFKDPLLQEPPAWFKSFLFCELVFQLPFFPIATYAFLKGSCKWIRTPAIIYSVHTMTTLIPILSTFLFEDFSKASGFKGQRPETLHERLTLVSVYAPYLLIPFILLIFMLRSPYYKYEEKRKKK

As to `Cc1ccc2c(n1)C(C)(C)CN2C(=O)N1CCC(N(C)CCc2ccccc2)CC1` [Example 50, (4-(methyl(phenethyl)amino)piperidin-1-yl)(3,3,5-trimethyl-2,3-dihydro-1H-pyrrolo[3,2-b]pyridin-1-yl)methanone], the Ki in experiment [1] (setting [3]) is 100 to 500 nM; in experiment [2] it was below 100 nM.
The corresponding values for `CN(Cc1ccccc1)C1CCN(C(=O)N2CCc3ncccc32)CC1` [Example 51, (4-(benzyl(methyl)amino)piperidin-1-yl)(2,3-dihydro-1H-pyrrolo[3,2-b]pyridin-1-yl)methanone] are below 100 nM and 100 to 500 nM.
The corresponding values for `CN(CCc1ccccc1)C1CCN(C(=O)N2CC(C)(C)c3ncccc32)CC1` [Example 52, (3,3-dimethyl-2,3-dihydro-1H-pyrrolo[3,2-b]pyridin-1-yl)(4-(methyl(phenethyl)amino)piperidin-1-yl)methanone] are 100 to 500 nM and below 100 nM.
In the same order, the values of `CN(CCc1ccccc1)[C@H]1CCCN(C(=O)N2CCc3ncccc32)C1` [Example 53, (S)-(2,3-dihydro-1H-pyrrolo[3,2-b]pyridin-1-yl)(3-(methyl(phenethyl)amino)piperidin-1-yl)methanone] are 100 to 500 nM and 100 to 500 nM.
On to `Cc1ccc2c(n1)C(C)(C)CN2C(=O)N1CCC[C@H](N(C)CCc2ccccc2)C1` [Example 54, (S)-(3-(methyl(phenethyl)amino)piperidin-1-yl)(3,3,5-trimethyl-2,3-dihydro-1H-pyrrolo[3,2-b]pyridin-1-yl)methanone], for which the Ki in experiment [1] is 100 to 500 nM; in experiment [2], below 100 nM.
Take `Cc1ccc2c(n1)C(C)(C)CN2C(=O)NC1CCN(Cc2cccc(Cl)c2)CC1` [Example 55, N-(1-(3-chlorobenzyl)piperidin-4-yl)-3,3,5-trimethyl-2,3-dihydro-1H-pyrrolo[3,2-b]pyridine-1-carboxamide]: the Ki in experiment [1] (setting [3]) is below 100 nM; in experiment [2] it was 100 to 500 nM.
Turning to `Cc1ccc2c(n1)C(C)(C)CN2C(=O)N1CCC(N(C)Cc2cccc(S(C)(=O)=O)c2)CC1` [Example 56, (4-(methyl(3-(methylsulfonyl)benzyl)amino)piperidin-1-yl)(3,3,5-trimethyl-2,3-dihydro-1H-pyrrolo[3,2-b]pyridin-1-yl)methanone], the Ki in experiment [1] (setting [3]) is above 1000 nM; in experiment [2] it was 500 to 1000 nM.
In the same order, the values of `Cc1ccc2c(n1)C(C)(C)CN2C(=O)N1CCC2(CCN(Cc3ccccc3)CC2)CC1` [Example 57, (9-benzyl-3,9-diazaspiro[5.5]undecan-3-yl)(3,3,5-trimethyl-2,3-dihydro-1H-pyrrolo[3,2-b]pyridin-1-yl)methanone] are below 100 nM and below 100 nM.
In the same order, the values of `COc1ccc(CN(C)C2CCN(C(=O)N3CC(C)(C)c4nc(C)ccc43)CC2)cc1` [Example 58, (4-((4-methoxybenzyl)(methyl)amino)piperidin-1-yl)(3,3,5-trimethyl-2,3-dihydro-1H-pyrrolo[3,2-b]pyridin-1-yl)methanone] are 100 to 500 nM and 100 to 500 nM.
Consider `COc1cccc(CN(C)C2CCN(C(=O)N3CC(C)(C)c4nc(C)ccc43)CC2)c1` [Example 59], for which the Ki in experiment [1] (setting [3]) is 500 to 1000 nM; in experiment [2], below 100 nM.
In the same order, the values of `Cc1ccc2c(n1)C(C)(C)CN2C(=O)N1CCC(N(C)Cc2ccc(F)c(C#N)c2)CC1` [Example 60, 2-fluoro-5-((methyl(1-(3,3,5-trimethyl-2,3-dihydro-1H-pyrrolo[3,2-b]pyridine-1-carbonyl)piperidin-4-yl)amino)methyl)benzonitrile] are 100 to 500 nM and below 100 nM.
Regarding `CN(Cc1ccccc1)[C@H]1CCCN(C(=O)N2CCc3ncccc32)C1` [Example 61, (S)-(3-(benzyl(methy)amino)piperidin-1-yl)(2,3-dihydro-1H-pyrrolo[3,2-b]pyridin-1-yl)methanone], the Ki in experiment [1] (setting [3]) was above 1000 nM; in experiment [2], below 100 nM.
In the same order, the values of `CN(CCc1ccccc1)[C@H]1CCN(C(=O)N2CCc3ncccc32)C1` [Example 62, (S)-(2,3-dihydro-1H-pyrrolo[3,2-b]pyridin-1-yl)(3-(methyl(phenethyl)amino)pyrrolidin-1-yl)methanone] are above 1000 nM and 500 to 1000 nM.
For the molecule `Cc1ccc2c(n1)C(C)(C)CN2C(=O)N1CCC(N(C)Cc2cccc(C(=O)N(C)C)c2)CC1` [Example 63, N, N-dimethyl-3-((methyl(1-(3,3,5-trimethyl-2,3-dihydro-1H-pyrrolo[3,2-b]pyridine-1-carbonyl)piperidin-4-yl)amino)methyl)benzamide], the Ki in experiment [1] (setting [3]) and in experiment [2] was above 1000 nM throughout.
`CC(C)CCN(C)[C@H]1CCCN(C(=O)N2CCc3ncccc32)C1` [Example 64, (S)-(2,3-dihydro-1H-pyrrolo[3,2-b]pyridin-1-yl)(3-(isopentyl(methy)amino)piperidin-1-yl)methanone]: the Ki in experiment [1] (setting [3]) and in experiment [2] was below 100 nM in each case.
`Cc1ccc2c(n1)C(C)(C)CN2C(=O)N1CCC(N(C)CC2CCOCC2)CC1` [Example 65, (4-(methyl((tetrahydro-2H-pyran-4-yl)methyl)amino)piperidin-1-yl)(3,3,5-trimethyl-2,3-dihydro-1H-pyrrolo[3,2-t]pyridin-1-yl)methanone]: the Ki in experiment [1] (setting [3]) was 100 to 500 nM; in experiment [2], below 100 nM.
The corresponding values for `Cc1ccc2c(n1)C(C)(C)CN2C(=O)N1CCC(CN(C)Cc2ccccc2)CC1` [Example 66, (4-((benzyl(methyl)amino)methyl)piperidin-1-yl)(3,3,5-trimethyl-2,3-dihydro-1H-pyrrolo[3,2-b]pyridin-1-yl)methanone] are 100 to 500 nM and 100 to 500 nM.
Turning to `Cc1ccc2c(n1)C(C)(C)CN2C(=O)N1CCC(N(C)CCC(C)C)CC1` [Example 67, (4-(isopentyl(methyl)amino)piperidin-1-yl)(3,3,5-trimethyl-2,3-dihydro-1H-pyrrolo[3,2-b]pyridin-1-yl)methanone], the Ki in experiment [1] (setting [3]) and in experiment [2] was below 100 nM each time.
As for `Cc1ccc2c(n1)C(C)(C)CN2C(=O)N1CCC(N(C)Cc2ccc(N(C)C)cc2)CC1` [Example 68, (4-((4-(dimethylamino)benzyl)(methyl)amino)piperidin-1-yl)(3,3,5-trimethyl-2,3-dihydro-1H-pyrrolo[3,2-b]pyridin-1-yl)methanone], the Ki in experiment [1] (setting [3]) is 100 to 500 nM; in experiment [2] it was below 100 nM.
The corresponding values for `CC1(C)CN(C(=O)NCC2CCN(Cc3ccccc3)CC2)c2cccnc21` [Example 69, N-((1-benzylpiperidin-4-yl)methyl)-3,3-dimethyl-2,3-dihydro-1H-pyrrolo[3,2-b]pyridine-1-carboxamide] are 100 to 500 nM and 100 to 500 nM.
In the same order, the values of `CC1(C)CN(C(=O)NCC2CCN(CCc3ccccc3)CC2)c2cccnc21` [Example 70, 3,3-dimethyl-N-((1-phenethylpiperidin-4-yl)methyl)-2,3-dihydro-1H-pyrrolo[3,2-b]pyridine-1-carboxamide] are above 1000 nM and 100 to 500 nM.
In the same order, the values of `CN(Cc1ccccc1)[C@H]1CC[C@H](NC(=O)N2CC(C)(C)c3ncccc32)CC1` [Example 71, N-((1r,4r)-4-(benzyl(methyl)amino)cyclohexyl)-3,3-dimethyl-2,3-dihydro-1H-pyrrolo[3,2-b]pyridine-1-carboxamide] are above 1000 nM and below 100 nM.
